The record followed here is article PMC4164441, “The Characterisation of an Alkali-Stable Maltogenic Amylase from Bacillus lehensis G1 and Improved Malto-Oligosaccharide Production by Hydrolysis Suppression” (PLoS ONE, 2014).

This test has as its target T1, MAG1 (Shouchella lehensis, UniProt X5CPN2).
T1 construct: gene BleG1_0772; full-length ORF, 582 residues, pET21a(+) in E. coli BL21(DE3), Ni-NTA purified, tag kept (His-tag western); 68 kDa SDS-PAGE; monomer/dimer mixture; primers start MNRAGII
As to the kind of experiment: DNS reducing sugar assay, Lineweaver-Burk plot. It counts as biochemical. Conditions: 50 mM potassium phosphate pH 7.0, 40°C; hydrolysis; read-out: Km (mg ml^-1) (converted). The text has this:
DNS reducing sugar assay, Lineweaver-Burk plot on MAG1

T1 sequence (X5CPN2 entry or part of it): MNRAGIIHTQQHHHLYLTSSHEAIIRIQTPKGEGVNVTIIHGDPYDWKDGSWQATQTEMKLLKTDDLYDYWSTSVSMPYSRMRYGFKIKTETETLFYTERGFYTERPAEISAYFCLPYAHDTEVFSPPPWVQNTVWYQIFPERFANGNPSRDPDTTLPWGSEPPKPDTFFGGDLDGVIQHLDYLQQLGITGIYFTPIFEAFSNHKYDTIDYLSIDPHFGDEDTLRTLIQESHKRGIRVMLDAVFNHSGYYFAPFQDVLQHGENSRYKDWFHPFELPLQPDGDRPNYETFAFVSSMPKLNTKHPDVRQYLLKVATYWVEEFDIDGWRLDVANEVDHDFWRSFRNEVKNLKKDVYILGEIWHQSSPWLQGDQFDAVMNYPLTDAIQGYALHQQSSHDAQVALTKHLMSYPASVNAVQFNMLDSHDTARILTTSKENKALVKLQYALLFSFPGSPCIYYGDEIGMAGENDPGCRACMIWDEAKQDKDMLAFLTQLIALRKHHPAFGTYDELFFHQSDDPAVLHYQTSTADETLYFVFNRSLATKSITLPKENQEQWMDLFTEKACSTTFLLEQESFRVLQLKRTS

As for `OC[C@H]1O[C@@H]2O[C@H]3[C@H](O)[C@@H](O)[C@@H](O[C@H]4[C@H](O)[C@@H](O)[C@@H](O[C@H]5[C@H](O)[C@@H](O)[C@@H](O[C@H]6[C@H](O)[C@@H](O)[C@@H](O[C@H]7[C@H](O)[C@@H](O)[C@@H](O[C@H]8[C@H](O)[C@@H](O)[C@@H](O[C@H]1[C@H](O)[C@H]2O)O[C@@H]8CO)O[C@@H]7CO)O[C@@H]6CO)O[C@@H]5CO)O[C@@H]4CO)O[C@@H]3CO` [β-CD], the Km was 1120 µM.
